# Publication PMC7026418, “The kinase polypharmacology landscape of clinical PARP inhibitors” (Scientific Reports, 2020)
# Like-named read-outs stand apart in the source and are kept apart here.
# Columns and labels:
# Experiment in all cases: biochemical
# Set-up in all cases: DiscoveRx KINOMEscan active site-directed competition binding; percent of control kinase bound to immobilised ligand
# ERBB3 = ERBB3 (Homo sapiens, UniProt P21860)
# PRP4 = biological target: T1, PRP4 (Homo sapiens, UniProt Q13523)
# T1 construct: gene PRPF4B
# T1 sequence (Q13523 whole entry): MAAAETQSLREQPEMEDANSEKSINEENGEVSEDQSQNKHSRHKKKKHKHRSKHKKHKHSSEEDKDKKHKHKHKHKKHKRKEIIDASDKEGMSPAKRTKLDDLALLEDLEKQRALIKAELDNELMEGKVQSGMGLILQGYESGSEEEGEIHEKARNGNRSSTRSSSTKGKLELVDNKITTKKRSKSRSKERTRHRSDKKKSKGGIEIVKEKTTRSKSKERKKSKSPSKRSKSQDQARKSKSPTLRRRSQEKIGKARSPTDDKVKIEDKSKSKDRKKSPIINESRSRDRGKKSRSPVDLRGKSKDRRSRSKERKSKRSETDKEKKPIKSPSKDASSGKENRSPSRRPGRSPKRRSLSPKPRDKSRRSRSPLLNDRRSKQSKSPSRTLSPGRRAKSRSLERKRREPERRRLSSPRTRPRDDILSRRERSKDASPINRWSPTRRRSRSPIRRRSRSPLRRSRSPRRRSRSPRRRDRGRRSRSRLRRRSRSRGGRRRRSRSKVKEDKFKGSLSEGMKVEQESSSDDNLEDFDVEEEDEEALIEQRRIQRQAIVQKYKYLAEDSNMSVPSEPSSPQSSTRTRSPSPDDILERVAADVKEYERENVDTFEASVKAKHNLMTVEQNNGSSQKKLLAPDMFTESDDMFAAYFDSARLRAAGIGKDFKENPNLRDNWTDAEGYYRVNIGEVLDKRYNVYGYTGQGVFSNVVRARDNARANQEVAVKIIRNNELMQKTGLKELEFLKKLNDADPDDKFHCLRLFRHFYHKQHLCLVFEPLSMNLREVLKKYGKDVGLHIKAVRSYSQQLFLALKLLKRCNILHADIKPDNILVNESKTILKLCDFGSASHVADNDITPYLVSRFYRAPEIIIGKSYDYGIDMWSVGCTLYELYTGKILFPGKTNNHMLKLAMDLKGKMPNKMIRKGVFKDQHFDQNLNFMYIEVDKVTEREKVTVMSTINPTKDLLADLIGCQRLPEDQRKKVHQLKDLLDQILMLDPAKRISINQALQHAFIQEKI
# [1] = biological target: T2, ABL1(T315I)-nonphosphorylated (Homo sapiens, UniProt P00519, T315I)
# T2 construct: nonphosphorylated
# DCAMKL2 = biological target: T3, DCAMKL2 (Homo sapiens, UniProt Q8N568)
# T3 construct: gene DCLK2
# T3 sequence (Q8N568 1-766): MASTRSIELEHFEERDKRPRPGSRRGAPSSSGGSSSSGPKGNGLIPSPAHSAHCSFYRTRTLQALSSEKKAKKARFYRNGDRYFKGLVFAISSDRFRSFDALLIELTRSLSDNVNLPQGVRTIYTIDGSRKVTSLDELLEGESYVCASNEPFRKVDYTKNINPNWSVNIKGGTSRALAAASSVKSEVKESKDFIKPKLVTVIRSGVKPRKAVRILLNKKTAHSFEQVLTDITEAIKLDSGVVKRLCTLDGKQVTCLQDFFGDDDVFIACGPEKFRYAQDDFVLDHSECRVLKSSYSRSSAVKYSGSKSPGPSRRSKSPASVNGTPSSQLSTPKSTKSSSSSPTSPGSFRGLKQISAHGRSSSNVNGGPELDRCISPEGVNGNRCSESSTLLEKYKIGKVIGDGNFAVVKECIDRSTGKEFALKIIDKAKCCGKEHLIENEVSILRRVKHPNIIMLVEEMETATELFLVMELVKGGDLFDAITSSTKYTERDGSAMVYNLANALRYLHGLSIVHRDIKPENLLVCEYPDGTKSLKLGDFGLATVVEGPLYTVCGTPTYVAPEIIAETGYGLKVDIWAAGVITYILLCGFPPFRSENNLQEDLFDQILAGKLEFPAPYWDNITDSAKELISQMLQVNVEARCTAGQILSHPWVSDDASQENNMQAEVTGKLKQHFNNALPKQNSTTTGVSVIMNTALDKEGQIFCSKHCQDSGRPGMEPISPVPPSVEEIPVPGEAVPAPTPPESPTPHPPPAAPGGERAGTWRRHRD
# FLT3(N841I) = biological target: T4, FLT3(N841I) (Homo sapiens, UniProt P36888, N841I)
# T4 sequence (P36888 1-993 N841I): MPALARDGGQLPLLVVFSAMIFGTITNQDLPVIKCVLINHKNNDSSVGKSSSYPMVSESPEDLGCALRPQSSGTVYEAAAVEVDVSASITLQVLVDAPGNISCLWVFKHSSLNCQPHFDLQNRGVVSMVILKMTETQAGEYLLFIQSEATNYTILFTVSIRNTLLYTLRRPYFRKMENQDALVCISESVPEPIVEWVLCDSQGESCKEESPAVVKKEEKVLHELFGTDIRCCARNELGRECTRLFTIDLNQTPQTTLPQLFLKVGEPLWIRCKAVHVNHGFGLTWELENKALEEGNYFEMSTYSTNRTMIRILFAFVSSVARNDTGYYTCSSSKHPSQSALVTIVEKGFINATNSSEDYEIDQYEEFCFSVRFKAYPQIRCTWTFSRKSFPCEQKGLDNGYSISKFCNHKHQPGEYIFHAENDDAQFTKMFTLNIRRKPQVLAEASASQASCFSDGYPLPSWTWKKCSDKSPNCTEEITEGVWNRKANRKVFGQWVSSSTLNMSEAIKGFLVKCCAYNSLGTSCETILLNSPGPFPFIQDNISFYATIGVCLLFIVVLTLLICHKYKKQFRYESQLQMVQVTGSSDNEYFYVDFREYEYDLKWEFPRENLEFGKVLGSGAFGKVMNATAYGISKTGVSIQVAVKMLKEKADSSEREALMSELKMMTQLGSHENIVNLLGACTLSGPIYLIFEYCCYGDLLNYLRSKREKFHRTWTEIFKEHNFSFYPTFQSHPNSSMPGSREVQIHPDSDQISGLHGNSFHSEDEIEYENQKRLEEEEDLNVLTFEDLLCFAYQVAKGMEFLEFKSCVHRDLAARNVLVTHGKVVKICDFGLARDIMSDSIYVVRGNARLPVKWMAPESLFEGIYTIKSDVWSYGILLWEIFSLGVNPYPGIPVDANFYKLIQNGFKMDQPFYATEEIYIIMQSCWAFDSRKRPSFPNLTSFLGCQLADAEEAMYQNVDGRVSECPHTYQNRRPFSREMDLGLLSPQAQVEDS
# LIMK2 = LIMK2 (Homo sapiens, UniProt P53671)
# Sequence of LIMK2 (P53671 whole entry): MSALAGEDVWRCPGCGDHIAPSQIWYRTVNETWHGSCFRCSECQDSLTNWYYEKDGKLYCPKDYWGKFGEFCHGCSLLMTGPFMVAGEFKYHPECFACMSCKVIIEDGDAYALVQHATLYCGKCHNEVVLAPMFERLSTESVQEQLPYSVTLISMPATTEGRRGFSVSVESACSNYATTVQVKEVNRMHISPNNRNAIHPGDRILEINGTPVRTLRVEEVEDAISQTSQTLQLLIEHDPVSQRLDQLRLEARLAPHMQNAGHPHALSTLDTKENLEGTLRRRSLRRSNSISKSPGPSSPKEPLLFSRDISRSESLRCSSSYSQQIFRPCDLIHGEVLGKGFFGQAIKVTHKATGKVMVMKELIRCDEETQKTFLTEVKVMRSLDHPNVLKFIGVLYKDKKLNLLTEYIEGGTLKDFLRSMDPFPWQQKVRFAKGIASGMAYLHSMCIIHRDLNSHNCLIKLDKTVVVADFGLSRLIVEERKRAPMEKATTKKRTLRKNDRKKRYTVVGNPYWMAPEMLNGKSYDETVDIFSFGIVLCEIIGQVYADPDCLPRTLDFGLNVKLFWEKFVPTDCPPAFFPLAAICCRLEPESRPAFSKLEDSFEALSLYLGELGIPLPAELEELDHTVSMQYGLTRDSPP
# CAMKK2 = CAMKK2 (Homo sapiens, UniProt Q96RR4)
# Sequence of CAMKK2 (Q96RR4 whole entry): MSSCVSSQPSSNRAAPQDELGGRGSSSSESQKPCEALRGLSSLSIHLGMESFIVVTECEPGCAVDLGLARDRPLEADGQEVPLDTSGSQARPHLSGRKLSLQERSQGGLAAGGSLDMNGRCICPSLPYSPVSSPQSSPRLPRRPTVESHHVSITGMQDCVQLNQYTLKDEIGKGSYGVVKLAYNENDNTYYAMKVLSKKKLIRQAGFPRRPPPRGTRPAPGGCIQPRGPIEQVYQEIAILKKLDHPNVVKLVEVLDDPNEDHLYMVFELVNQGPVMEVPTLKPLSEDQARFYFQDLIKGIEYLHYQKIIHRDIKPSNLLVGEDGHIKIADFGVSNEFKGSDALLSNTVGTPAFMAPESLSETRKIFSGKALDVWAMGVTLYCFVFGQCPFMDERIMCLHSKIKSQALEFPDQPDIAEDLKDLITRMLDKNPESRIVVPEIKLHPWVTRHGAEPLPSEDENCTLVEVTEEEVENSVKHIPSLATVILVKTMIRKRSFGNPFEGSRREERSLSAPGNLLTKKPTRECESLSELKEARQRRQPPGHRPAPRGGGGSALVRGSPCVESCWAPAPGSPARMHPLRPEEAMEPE
# [2] = biological target: T5, ABL1(E255K)-phosphorylated (Homo sapiens, UniProt P00519, E255K)
# T5 construct: phosphorylated
# [3] = biological target: T6, RSK1(Kin.Dom.1-N-terminal) (Homo sapiens, UniProt Q15418)
# T6 construct: gene RPS6KA1; Kin.Dom.1-N-terminal
# T6 sequence (Q15418 whole entry): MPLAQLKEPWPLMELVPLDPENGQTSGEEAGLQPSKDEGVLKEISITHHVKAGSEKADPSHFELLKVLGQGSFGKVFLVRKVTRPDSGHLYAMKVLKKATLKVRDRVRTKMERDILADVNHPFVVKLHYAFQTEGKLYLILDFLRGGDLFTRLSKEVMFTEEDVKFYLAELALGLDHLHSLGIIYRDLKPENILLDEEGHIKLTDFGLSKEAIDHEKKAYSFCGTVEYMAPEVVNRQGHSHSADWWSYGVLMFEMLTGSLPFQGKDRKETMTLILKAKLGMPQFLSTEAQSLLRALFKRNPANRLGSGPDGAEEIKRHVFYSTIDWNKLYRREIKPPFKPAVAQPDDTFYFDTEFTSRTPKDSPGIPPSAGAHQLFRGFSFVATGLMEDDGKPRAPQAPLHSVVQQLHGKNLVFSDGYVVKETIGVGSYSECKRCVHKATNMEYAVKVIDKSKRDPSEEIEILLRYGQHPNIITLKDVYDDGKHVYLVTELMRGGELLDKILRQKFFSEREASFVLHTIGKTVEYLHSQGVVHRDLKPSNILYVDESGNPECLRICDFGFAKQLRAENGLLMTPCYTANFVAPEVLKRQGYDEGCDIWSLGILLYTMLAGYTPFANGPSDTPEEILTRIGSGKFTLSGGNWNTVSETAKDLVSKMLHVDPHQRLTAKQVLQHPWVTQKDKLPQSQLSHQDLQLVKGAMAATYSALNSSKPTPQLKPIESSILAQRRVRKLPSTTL
# [4] = read-out: Talazoparib (BMN 673) / %Ctrl @ 10000nM
# [5] = read-out: Olaparib / %Ctrl @ 10000nM
# [6] = read-out: Rucaparib / %Ctrl @ 10000nM, binding competition, % of control
# [7] = read-out: Niraparib (MK-4827) / %Ctrl @ 10000nM
# Sequence of ERBB3 (P21860 whole entry): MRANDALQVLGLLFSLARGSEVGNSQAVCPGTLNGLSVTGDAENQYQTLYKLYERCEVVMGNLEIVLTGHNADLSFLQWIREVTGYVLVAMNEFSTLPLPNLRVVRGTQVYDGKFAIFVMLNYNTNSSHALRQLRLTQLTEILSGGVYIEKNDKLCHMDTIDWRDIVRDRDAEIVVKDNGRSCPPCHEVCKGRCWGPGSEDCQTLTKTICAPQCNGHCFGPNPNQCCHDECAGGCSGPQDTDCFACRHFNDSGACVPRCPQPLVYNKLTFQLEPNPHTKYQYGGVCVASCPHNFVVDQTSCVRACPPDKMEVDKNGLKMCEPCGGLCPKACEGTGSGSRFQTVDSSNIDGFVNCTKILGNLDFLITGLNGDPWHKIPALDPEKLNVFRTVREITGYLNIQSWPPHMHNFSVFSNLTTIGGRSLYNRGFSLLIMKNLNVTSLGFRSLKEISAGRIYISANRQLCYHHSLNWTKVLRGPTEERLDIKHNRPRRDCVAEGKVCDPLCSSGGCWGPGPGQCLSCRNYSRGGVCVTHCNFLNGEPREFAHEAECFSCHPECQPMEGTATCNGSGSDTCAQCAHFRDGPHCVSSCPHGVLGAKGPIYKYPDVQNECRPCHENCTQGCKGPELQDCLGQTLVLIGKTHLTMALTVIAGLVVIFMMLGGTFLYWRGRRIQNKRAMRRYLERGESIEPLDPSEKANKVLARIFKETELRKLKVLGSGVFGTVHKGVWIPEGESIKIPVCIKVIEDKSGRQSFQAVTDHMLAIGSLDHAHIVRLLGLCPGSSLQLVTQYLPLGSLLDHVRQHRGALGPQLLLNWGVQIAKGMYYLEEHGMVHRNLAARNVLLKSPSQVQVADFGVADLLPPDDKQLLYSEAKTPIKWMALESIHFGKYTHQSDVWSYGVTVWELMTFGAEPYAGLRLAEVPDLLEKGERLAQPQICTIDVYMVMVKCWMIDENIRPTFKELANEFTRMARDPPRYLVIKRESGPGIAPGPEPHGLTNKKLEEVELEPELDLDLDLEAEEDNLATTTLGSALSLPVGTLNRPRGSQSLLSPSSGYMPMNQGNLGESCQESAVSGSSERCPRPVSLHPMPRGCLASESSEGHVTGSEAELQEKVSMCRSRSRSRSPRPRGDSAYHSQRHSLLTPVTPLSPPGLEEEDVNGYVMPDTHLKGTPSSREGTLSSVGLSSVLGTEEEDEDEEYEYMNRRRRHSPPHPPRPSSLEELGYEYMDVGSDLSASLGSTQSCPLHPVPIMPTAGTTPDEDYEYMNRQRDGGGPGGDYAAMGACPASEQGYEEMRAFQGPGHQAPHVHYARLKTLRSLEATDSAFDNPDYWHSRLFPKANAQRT
smiles,measurement,setting,value
Cn1ncnc1[C@H]1c2n[nH]c(=O)c3cc(F)cc(c23)N[C@@H]1c1ccc(F)cc1 [Talazoparib],percent of control binding at 10 µM,ERBB3; [4],100%
same,percent of control binding at 10 µM,PRP4; [4],100%
same,percent of control binding at 10 µM,[1]; [4],75%
same,percent of control binding at 10 µM,DCAMKL2; [4],100%
same,percent of control binding at 10 µM,FLT3(N841I); [4],100%
same,percent of control binding at 10 µM,LIMK2; [4],100%
same,percent of control binding at 10 µM,CAMKK2; [4],97%
same,percent of control binding at 10 µM,[2]; [4],100%
same,percent of control binding at 10 µM,[3]; [4],100%
O=C(c1cc(Cc2n[nH]c(=O)c3ccccc23)ccc1F)N1CCN(C(=O)C2CC2)CC1 [Olaparib],percent of control binding at 10 µM,ERBB3; [5],83%
same,percent of control binding at 10 µM,PRP4; [5],82%
same,percent of control binding at 10 µM,[1]; [5],79%
same,percent of control binding at 10 µM,DCAMKL2; [5],100%
same,percent of control binding at 10 µM,FLT3(N841I); [5],95%
same,percent of control binding at 10 µM,LIMK2; [5],100%
same,percent of control binding at 10 µM,CAMKK2; [5],99%
same,percent of control binding at 10 µM,[2]; [5],89%
same,percent of control binding at 10 µM,[3]; [5],94%
CNCc1ccc(-c2[nH]c3cc(F)cc4c3c2CCNC4=O)cc1 [Rucaparib],percent of control binding at 10 µM,ERBB3; [6],74%
same,percent of control binding at 10 µM,PRP4; [6],85%
same,percent of control binding at 10 µM,[1]; [6],72%
same,percent of control binding at 10 µM,DCAMKL2; [6],87%
same,Rucaparib / %Ctrl @ 10000nM,"FLT3(N841I); binding competition, % of control",64%
same,percent of control binding at 10 µM,LIMK2; [6],96%
same,percent of control binding at 10 µM,CAMKK2; [6],70%
same,percent of control binding at 10 µM,[2]; [6],91%
same,percent of control binding at 10 µM,[3]; [6],91%
NC(=O)c1cccc2cn(-c3ccc([C@@H]4CCCNC4)cc3)nc12 [Niraparib],percent of control binding at 10 µM,ERBB3; [7],100%
same,percent of control binding at 10 µM,PRP4; [7],97%
same,percent of control binding at 10 µM,[1]; [7],90%
same,percent of control binding at 10 µM,DCAMKL2; [7],83%
same,percent of control binding at 10 µM,FLT3(N841I); [7],77%
same,percent of control binding at 10 µM,LIMK2; [7],91%
same,percent of control binding at 10 µM,CAMKK2; [7],81%
same,percent of control binding at 10 µM,[2]; [7],64%
same,percent of control binding at 10 µM,[3]; [7],98%
